{
  "source": "patent US20220033734A1",
  "about": "“FABRIC CONDITIONER COMPOSITIONS” (Conopco, Inc., d/b/a UNILEVER, priority 2018, published 2022)",
  "tested_on": "Gram-negative non-fermenting bacteria: B. cepacia, P. aeruginosa, Strenotrophomonas sp",
  "assay": "Modified challenge test in fabric conditioner, Total Viable Count pour plate: Gram-negative non-fermenting bacteria",
  "type": "cell-based",
  "settings": "overall statement on the challenge tests of Tables 3 and 4",
  "experimental": "Water was heated to ˜45° C., the Cetearyl alcohol was added followed by the minors. A premix of melted quaternary ammonium active was then added and mixed. The formulation was then cooled to ˜35° C. and any remaining minors added.\nItaconic acid, lactic acid and citric acid were purchased from Sigma-Aldrich. Samples of unpreserved fabric conditioner were dosed with itaconic acid, citric acid or lactic acid separately, according to Tables 3 and 4. Each dosed product was adjusted to pH 5 using 50% sodium hydroxide (Sigma-Aldrich). An unpreserved sample was kept as a control.\nA modified challenge test method was performed on samples as defined in […]. The microbial compositions comprising the bacteria listed in Tables 2 and 3 were produced with an inoculum level of 5×10^7 CFU/G in sodium chloride.\nThe microbial compositions were added to each fabric conditioner formulation at a ratio of 1:10 (by weight) microbial composition to fabric conditioner formulation. […]\nBoth the inoculum level and the level of microorganism within each sample was quantified using a Total Viable Count (TVC) pour plate method after contact times as indicated in data tables. […] Visible colonies were counted with the aid of a Quebec Colony Counter and recorded for analysis against the challenge test criteria.",
  "data": [
    {"smiles": "C=C(CC(=O)O)C(=O)O", "note": "[itaconic acid]", "values": [
      {"measurement": "Preservation performance compared with other systems", "result": "out performed citric acid, lactic acid and unpreserved systems"}
    ]}
  ]
}
